Values quoted from earlier work as cited in publication PMC6262012, “IMB-T130 targets 3-dehydroquinate synthase and inhibits Mycobacterium tuberculosis” (Scientific Reports, 2018).

Tested on: M. tuberculosis
Conditions: drug-resistant strains, compared with RFP and INH; cited from earlier work

O=C(Nc1nc(-c2ccccn2)cs1)c1ccc(Cl)s1 [IMB-T130, 5-chloro-N-[4-(pyridin-2-yl)-1,3-thiazol-2-yl] thiophene-2-carboxamide]
MIC against drug-resistant strains: substantially lower MIC
